Experimental data: ChEMBL document CHEMBL4396926, “Design, Synthesis and Anticancer Evaluation of New Substituted Thiophene-Quinoline Derivatives” (Bioorg Med Chem, 2019); call rule not given here

Key:
[1] = test system: HepG2; assay: Cytotoxicity against human HepG2 cells assessed as cell growth inhibition at 3.125 to 100 uM incubated for 72 hrs and measured after 2 hrs by microplate reader based WST-1 assay relative to control; type: functional
[2] = test system: HeLa; assay: Cytotoxicity against human HeLa cells assessed as cell growth inhibition at 3.125 to 100 uM incubated for 72 hrs and measured after 2 hrs by microplate reader based WST-1 assay relative to control; type: functional
[3] = test system: HCT-116; assay: Cytotoxicity against human HCT116 cells assessed as cell growth inhibition at 3.125 to 100 uM incubated for 72 hrs and measured after 2 hrs by microplate reader based WST-1 assay relative to control; type: functional
[4] = test system: MCF7; assay: Cytotoxicity against human MCF7 cells assessed as cell growth inhibition at 3.125 to 100 uM incubated for 72 hrs and measured after 2 hrs by microplate reader based WST-1 assay relative to control; type: functional
[5] = test system: HepG2; assay: Cytotoxicity against human HepG2 cells assessed as increase in growth inhibition by measuring decrease in cell viability incubated for 72 hrs and measured after 2 hrs by microplate reader based WST-1 assay; type: functional
[6] = test system: HeLa; assay: Cytotoxicity against human HeLa cells assessed as increase in growth inhibition by measuring decrease in cell viability incubated for 72 hrs and measured after 2 hrs by microplate reader based WST-1 assay; type: functional
[7] = test system: HCT-116; assay: Cytotoxicity against human HCT116 cells assessed as increase in growth inhibition by measuring decrease in cell viability incubated for 72 hrs and measured after 2 hrs by microplate reader based WST-1 assay; type: functional
[8] = test system: MCF7; assay: Cytotoxicity against human MCF7 cells assessed as increase in growth inhibition by measuring decrease in cell viability incubated for 72 hrs and measured after 2 hrs by microplate reader based WST-1 assay; type: functional
[9] = biological target: Epidermal growth factor receptor (Homo sapiens, UniProt P00533); assay: Inhibition of EGFR-TK in human MCF7 cells overexpressing EGFR incubated for 18 to 24 hrs by kinase assay; type: cell-based
[10] = test system: MCF7; assay: Induction of apoptosis in human MCF7 cells assessed as increase in caspase 3 activation by measuring fold increase in caspase 3 level by fluorescence based solid phase sandwich ELISA; type: functional
[11] = test system: MCF7; assay: Induction of apoptosis in human MCF7 cells assessed as increase in caspase 9 activation by measuring fold increase in caspase 9 level by fluorescence based solid phase sandwich ELISA; type: functional
[12] = test system: MCF7; assay: Cell cycle arrest in human MCF7 cells assessed as accumulation at G0/G1 phase at IC50 after 24 hrs by propidium iodide staining based FACS analysis (reference value: 67.39%); type: functional
[13] = test system: MCF7; assay: Cell cycle arrest in human MCF7 cells assessed as accumulation at S phase at IC50 after 24 hrs by propidium iodide staining based FACS analysis (reference value: 27.13%); type: functional
[14] = test system: MCF7; assay: Cell cycle arrest in human MCF7 cells assessed as accumulation at G2/M phase at IC50 after 24 hrs by propidium iodide staining based FACS analysis (reference value: 4.82%); type: functional
[15] = test system: MCF7; assay: Cell cycle arrest in human MCF7 cells assessed as accumulation at pre G1/apoptotic phase at IC50 after 24 hrs by propidium iodide staining based FACS analysis (reference value: 0.66%); type: functional
[16] = test system: MCF7; assay: Induction of apoptosis in human MCF7 cells after 24 hrs by Annexin V-FITC/propidium iodide staining-based FACS analysis; type: functional, cell-based
[17] = test system: MCF7; assay: Induction of apoptosis in human MCF7 cells assessed as viable cells after 24 hrs by Annexin V-FITC/propidium iodide staining-based FACS analysis (reference value: 99.34%); type: functional
[18] = test system: MCF7; assay: Induction of apoptosis in human MCF7 cells assessed as early apoptotic cells after 24 hrs by Annexin V-FITC/propidium iodide staining-based FACS analysis (reference value: 0.29%); type: functional
[19] = test system: MCF7; assay: Induction of apoptosis in human MCF7 cells assessed as late apoptotic cells after 24 hrs by Annexin V-FITC/propidium iodide staining-based FACS analysis (reference value: 0.22%); type: functional
[20] = test system: MCF7; assay: Induction of apoptosis in human MCF7 cells assessed as necrotic cells after 24 hrs by Annexin V-FITC/propidium iodide staining-based FACS analysis (reference value: 0.15%); type: functional
[21] = biological target: T1, DNA topoisomerase II (Homo sapiens, UniProt P11388+Q02880); assay: Inhibition of DNA topoisomerase 2 in human MCF7 cells at 25 uM incubated for 18 to 24 hrs by kinase assay relative to control; type: cell-based
[22] = biological target: T1, DNA topoisomerase II; assay: Inhibition of DNA topoisomerase 2 in human MCF7 cells at 1 uM incubated for 18 to 24 hrs by kinase assay relative to control; type: cell-based
[23] = biological target: T1, DNA topoisomerase II; assay: Inhibition of DNA topoisomerase 2 in human MCF7 cells at 0.2 uM incubated for 18 to 24 hrs by kinase assay relative to control; type: cell-based
[24] = biological target: T1, DNA topoisomerase II; assay: Inhibition of DNA topoisomerase 2 in human MCF7 cells incubated for 18 to 24 hrs by kinase assay; type: cell-based
[25] = biological target: T1, DNA topoisomerase II; assay: Inhibition of DNA topoisomerase 2 in human MCF7 cells at 5 uM incubated for 18 to 24 hrs by kinase assay relative to control; type: cell-based
[26] = Homo sapiens, HepG2, read-out: IC50
[27] = Homo sapiens, HeLa, read-out: IC50
[28] = Homo sapiens, HCT-116, read-out: IC50
[29] = Homo sapiens, MCF7, read-out: IC50

Chain of Epidermal growth factor receptor (P00533 whole entry): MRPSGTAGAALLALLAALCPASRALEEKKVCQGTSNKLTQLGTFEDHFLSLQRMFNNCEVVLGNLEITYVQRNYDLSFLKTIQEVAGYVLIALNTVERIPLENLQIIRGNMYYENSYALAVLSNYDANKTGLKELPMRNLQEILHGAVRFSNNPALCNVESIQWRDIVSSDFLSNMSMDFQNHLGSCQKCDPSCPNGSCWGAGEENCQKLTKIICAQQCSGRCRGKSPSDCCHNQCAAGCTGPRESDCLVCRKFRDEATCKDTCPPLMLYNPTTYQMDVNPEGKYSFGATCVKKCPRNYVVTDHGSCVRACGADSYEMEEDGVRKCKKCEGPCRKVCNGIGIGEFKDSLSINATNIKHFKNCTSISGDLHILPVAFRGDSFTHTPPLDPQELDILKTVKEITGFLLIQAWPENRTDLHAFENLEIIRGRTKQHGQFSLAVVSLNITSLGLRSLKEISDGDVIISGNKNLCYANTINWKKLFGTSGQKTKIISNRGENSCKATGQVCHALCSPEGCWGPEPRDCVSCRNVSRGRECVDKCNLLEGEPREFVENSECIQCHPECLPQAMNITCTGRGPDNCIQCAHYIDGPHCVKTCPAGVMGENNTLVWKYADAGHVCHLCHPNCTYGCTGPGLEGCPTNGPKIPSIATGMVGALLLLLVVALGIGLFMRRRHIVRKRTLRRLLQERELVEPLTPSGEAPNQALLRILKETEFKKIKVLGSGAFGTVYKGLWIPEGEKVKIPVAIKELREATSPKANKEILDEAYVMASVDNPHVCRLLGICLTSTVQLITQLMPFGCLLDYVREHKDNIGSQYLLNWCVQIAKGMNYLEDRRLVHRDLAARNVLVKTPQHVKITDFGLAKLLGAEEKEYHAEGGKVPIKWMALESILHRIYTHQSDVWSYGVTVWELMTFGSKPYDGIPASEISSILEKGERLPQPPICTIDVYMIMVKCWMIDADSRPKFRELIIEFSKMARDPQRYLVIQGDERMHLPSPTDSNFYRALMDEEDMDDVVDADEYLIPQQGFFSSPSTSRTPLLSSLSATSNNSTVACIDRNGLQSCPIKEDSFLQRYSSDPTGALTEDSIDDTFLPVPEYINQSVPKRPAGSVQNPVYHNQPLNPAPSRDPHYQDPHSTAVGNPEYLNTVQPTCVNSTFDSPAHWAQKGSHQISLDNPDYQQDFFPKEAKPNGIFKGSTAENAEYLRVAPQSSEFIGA

Cc1cc(C)c(COC(c2cccs2)c2cc3ccccc3nc2Cl)c(C)c1 (configuration not stated)
growth inhibition (GI) [1]: 24.76% | growth inhibition (GI) [2]: 42.48% | growth inhibition (GI) [3]: 26.37% | growth inhibition (GI) [4]: 21.49%

C#CCOC(c1cccs1)c1cc2ccccc2nc1Cl (configuration not stated)
IC50 [5, 26]: > 100 µM | IC50 [6, 27]: 34.7 µM | IC50 [7, 28]: > 100 µM | IC50 [8, 29]: > 100 µM

Clc1ccc(-n2cc(COC(c3cccs3)c3cc4ccccc4nc3Cl)nn2)cc1 (configuration not stated)
growth inhibition (GI) [1]: 8.39% | growth inhibition (GI) [2]: <10% | growth inhibition (GI) [3]: 23.13% | growth inhibition (GI) [4]: <10%

Oc1ccc(-c2cc(COC(c3cccs3)c3cc4ccccc4nc3Cl)on2)cc1 (configuration not stated)
growth inhibition (GI) [1]: 64.51% | growth inhibition (GI) [2]: <10% | growth inhibition (GI) [3]: 14.27% | growth inhibition (GI) [4]: <10% | IC50 [5, 26]: 178 µM | IC50 ([6]; hela): Not Active | IC50 ([7]; hct-116): Not Active | IC50 ([8]; mcf7): Not Active

FC(F)(F)c1ccc(-n2cc(COC(c3cccs3)c3cc4ccccc4nc3Cl)nn2)cc1 (configuration not stated)
growth inhibition (GI) [1]: <10% | growth inhibition (GI) [2]: <10% | growth inhibition (GI) [3]: 35.86% | growth inhibition (GI) [4]: <10%

Fc1ccc(COC(c2cccs2)c2cc3ccccc3nc2Cl)cc1 (configuration not stated)
growth inhibition (GI) [1]: 30.53% | growth inhibition (GI) [2]: 66.21% | growth inhibition (GI) [3]: <10% | growth inhibition (GI) [4]: 64.97% | IC50 ([5]; hepg2): Not Active | IC50 [6, 27]: 73.9 µM | IC50 ([7]; hct-116): Not Active | IC50 [8, 29]: 38.4 µM | IC50 [9]: 2.75 µM | fold change (FC) [10]: 30.8 | fold change (FC) [11]: 40.6 | Activity [12]: 47.2% | Activity [13]: 17.19% | Activity [14]: 19.33% | Activity [15]: 16.28% | Activity [16]: Dose-dependent effect | Activity [17]: 83.96% | Activity [18]: 7.03% | Activity [19]: 8.42% | Activity [20]: 0.83% | inhibition [21]: 93.7% | inhibition [22]: 70.8% | inhibition [23]: 43.3% | IC50 [24]: 0.23 µM | inhibition [25]: 88.5%

COc1cc(-c2cc(COC(c3cccs3)c3cc4ccccc4nc3Cl)on2)cc(OC)c1OC (configuration not stated)
growth inhibition (GI) [1]: 14.57% | growth inhibition (GI) [2]: <10% | growth inhibition (GI) [3]: <10% | growth inhibition (GI) [4]: <10%

COc1ccc(-c2cc(COC(c3cccs3)c3cc4ccccc4nc3Cl)on2)cc1 (configuration not stated)
growth inhibition (GI) [1]: 17.93% | growth inhibition (GI) [2]: <10% | growth inhibition (GI) [3]: 20.31% | growth inhibition (GI) [4]: <10%

Cc1ccc(-c2cc(COC(c3cccs3)c3cc4ccccc4nc3Cl)on2)cc1 (configuration not stated)
growth inhibition (GI) [1]: 31.77% | growth inhibition (GI) [2]: <10% | growth inhibition (GI) [3]: 43.91% | growth inhibition (GI) [4]: 22.03% | IC50 ([5]; hepg2): Not Active | IC50 ([6]; hela): Not Active | IC50 [7, 28]: 115 µM | IC50 ([8]; mcf7): Not Active

O=[N+]([O-])c1ccc(-n2cc(COC(c3cccs3)c3cc4ccccc4nc3Cl)nn2)cc1 (configuration not stated)
growth inhibition (GI) [1]: <10% | growth inhibition (GI) [2]: <10% | growth inhibition (GI) [3]: <10% | growth inhibition (GI) [4]: <10%

Clc1nc2ccccc2cc1C(OCc1ccccc1)c1cccs1 (configuration not stated)
growth inhibition (GI) [1]: <10% | growth inhibition (GI) [2]: <10% | growth inhibition (GI) [3]: <10% | growth inhibition (GI) [4]: 45.63% | IC50 ([5]; hepg2): Not Active | IC50 ([6]; hela): Not Active | IC50 ([7]; hct-116): Not Active | IC50 [8, 29]: 108 µM
